Patent US8217085B2 (priority 2009, dated 2012)
Where “and” joins values, the source holds several entries; their conditions need not be identical. Equal entries are not always repeated. Where two headings read alike, the source gives them in different places.

Assays:
[1] = tested on: ATCC strain 43300 Staphylococcus aureus
Procedure: Additional antibiotic was added every 24 hours.
USP<51> Antimicrobial Effectiveness protocol was used as the template experimental paradigm. […] All concentrations were plated out to the 10^−7 dilutionsto ascertain cfu/ml. […] Additional antibiotic was added at the initial concentration every 24 hours.
ATCC strain 43300 Staphylococcus aureus was streaked out for isolations. An isolated colony was chosen, streaked again and incubated. Isolate was chosen and then diluted to a McFarland standard of one. The estimated value was then taken to inoculate tubes containing growth media and 12, 30 or 60 μg/ml oxacillin with approximately 10^5 cfu/ml. These tubes were incubated and plated for counting cfu.
Material was calculated on a 10 ml volume. Sterile oxacillin was added to each experimental condition to a final concentration of 12, 30 or 60 μg/ml antibiotic.
All tubes were then inoculated with a dilution of the selected ATCC strain 43300 Staphylococcus aureus clone giving a final level of colony forming units of 3.3×10^5/ml (log=5.52). The tubes were incubated at 25° C. and mixed periodically. Antibiotic was re-inoculated every 24 hours at the initial concentration to maintain pressure on the organism. Plating was done at 24, 48, 72, and 120 hours. Each condition was plated by diluting 1 ml of growth material into 9 ml of MLB diluent broth. […] This mixture was serial diluted down to 10^−7 with 1 ml placed in triplicate in a sterile petri dish at each dilution point. 20 mls of TSA was added to each dilution, swirled and allowed to solidify. All dilutions were placed in a 35° C. incubator for 24 to 72 hours. Bacterial colonies on each plate were counted and the average taken then changed into log format. Any cfu/ml observed greater than 3.3×10^5 (log=5.5) were recorded as >3.3×10^5.

[2] = tested on: ATCC strain 43300 Staphylococcus aureus; details: 24 hours
Procedure: All concentrations were plated out to the 10^−7 dilutions to ascertain cfu/ml.
ATCC strain 43300 Staphylococcus aureus was streaked out for isolations and 25 clones were picked and diluted to a McFarland standard of one. The estimated value was then taken to inoculate tubes containing growth media and 12, 30 or 60 μg/ml methicillin or oxacillin with around 10^−7 cfu/tube.
Material was calculated on a 10 ml volume. Sterile oxacillin or methicillin was added to each experimental condition to a final concentration of 12, 30 or 60 μg/ml antibiotic.
All tubes were then inoculated with a dilution of the selected ATCC strain 43300 Staphylococcus aureus clone giving a final level of colony forming units of 9.4×10^7/ml (log=7.97). The tubes were incubated at 25° C. and mixed periodically. […] Plating was done at 24 hours. Each condition was plated by diluting 1 ml of growth material into 9 ml of MLB diluent broth. This mixture was serial diluted down to 10^−7, and 1 ml placed in a sterile petri dish at each dilution point. 20 mls of TSA was added to each dilution, swirled and allowed to solidify. All dilutions were placed in a 35° C. incubator for 24 hours. Bacterial colonies on each plate were counted and colony counts changed into log format. A positive and negative control was ascertained.

[3] = 11% MSM, 30 μg/ml oxacillin, 24 hours
[4] = 11% MSM, 60 μg/ml oxacillin, 24 hours
[5] = 12% MSM, 12 μg/ml oxacillin, 24 hours
[6] = 12% MSM, 12 μg/ml oxacillin, 48 hours
[7] = 12% MSM, 30 μg/ml oxacillin, 24 hours
[8] = 12% MSM, 60 μg/ml oxacillin, 24 hours
[9] = 13% MSM, 12 μg/ml oxacillin, 24 hours
[10] = 13% MSM, 12 μg/ml oxacillin, 48 hours
[11] = 13% MSM, 30 μg/ml oxacillin, 24 hours
[12] = 13% MSM, 60 μg/ml oxacillin, 24 hours
[13] = 14% MSM, 12 μg/ml oxacillin, 24 hours
[14] = 14% MSM, 12 μg/ml oxacillin, 48 hours
[15] = 14% MSM, 12 μg/ml oxacillin, 72 hours
[16] = 14% MSM, 30 μg/ml oxacillin, 24 hours
[17] = 14% MSM, 60 μg/ml oxacillin, 24 hours
[18] = 15% MSM, 12 μg/ml oxacillin, 24 hours
[19] = 15% MSM, 12 μg/ml oxacillin, 48 hours
[20] = 15% MSM, 30 μg/ml oxacillin, 24 hours
[21] = 15% MSM, 60 μg/ml oxacillin, 24 hours
[22] = 16% MSM, 12 μg/ml oxacillin, 24 hours
[23] = 16% MSM, 12 μg/ml oxacillin, 48 hours
[24] = 16% MSM, 30 μg/ml oxacillin, 24 hours
[25] = 16% MSM, 60 μg/ml oxacillin, 24 hours

## CS(C)(=O)=O [MSM, methylsulfonylmethane]
[1]; 11% MSM, 12 μg/ml oxacillin, 72 hours
  Average Log: 3.6 Log
[1]; [3]
  Average Log: 3.57 Log
  survival: 3.9 × 10^3 cfu/ml and 3.7 × 10^3 cfu/ml
[1]; 11% MSM, 30 μg/ml oxacillin, 48 hours
  Average Log: 2.4 Log
[1]; 11% MSM, 30 μg/ml oxacillin, 72 hours
  Average Log: 3.2 Log
[1]; [4]
  Average Log: 2.83 Log
  survival: 6.7 × 10^2 cfu/ml and 6.9 × 10^2 cfu/ml
[1]; 11% MSM, 60 μg/ml oxacillin, 48 hours
  Average Log: 2.1 Log
[1]; [5]
  Average Log: 3.85 Log
  survival: 7.0 × 10^3 cfu/ml and 7.3 × 10^3 cfu/ml
[1]; [6]
  Average Log: 2.8 Log
  survival: 3.6 × 10^2 cfu/ml and 4.0 × 10^2 cfu/ml and 4.2 × 10^2 cfu/ml
[1]; 12% MSM, 12 μg/ml oxacillin, 72 hours
  Average Log: 3.1 Log
[1]; [7]
  Average Log: 3.59 Log
  survival: 3.9 × 10^3 cfu/ml
[1]; 12% MSM, 30 μg/ml oxacillin, 48 hours
  Average Log: 2.6 Log
[1]; 12% MSM, 30 μg/ml oxacillin, 72 hours
  Average Log: 2.6 Log
[1]; [8]
  Average Log: 2.86 Log
  survival: 7.3 × 10^2 cfu/ml and 7.1 × 10^2 cfu/ml and 7.5 × 10^2 cfu/ml
[1]; 12% MSM, 60 μg/ml oxacillin, 48 hours
  Average Log: 2.0 Log
[1]; 12% MSM, 60 μg/ml oxacillin, 72 hours
  Average Log: 2.4 Log
[1]; 12%-16% MSM, 12 μg/ml oxacillin, 72 hours
  log reduction in the number of cfu/ml: 1 log
[1]; [9]
  Average Log: 3.95 Log
  survival: 9.0 × 10^3 cfu/ml and 8.7 × 10^3 cfu/ml and 9.2 × 10^3 cfu/ml
[1]; [10]
  Average Log: 2.8 Log
  survival: 6.8 × 10^2 cfu/ml and 5.8 × 10^2 cfu/ml
[1]; 13% MSM, 12 μg/ml oxacillin, 72 hours
  Average Log: 2.7 Log
[1]; [11]
  Average Log: 3.62 Log
  survival: 4.4 × 10^3 cfu/ml and 4.1 × 10^3 cfu/ml and 4.2 × 10^3 cfu/ml
[1]; 13% MSM, 30 μg/ml oxacillin, 48 hours
  Average Log: 2.5 Log
[1]; 13% MSM, 30 μg/ml oxacillin, 72 hours
  Average Log: 1.8 Log
[1]; [12]
  Average Log: 2.80 Log
  survival: 6.3 × 10^2 cfu/ml and 6.0 × 10^2 cfu/ml
[1]; 13% MSM, 60 μg/ml oxacillin, 48 hours
  Average Log: 1.7 Log
[1]; 13% MSM, 60 μg/ml oxacillin, 72 hours
  Average Log: 1 Log
[1]; [13]
  Average Log: 4.00 Log
  survival: 1.00 × 10^4 cfu/ml and 1.02 × 10^4 cfu/ml and 1.01 × 10^4 cfu/ml
[1]; [14]
  Average Log: 1.0 Log
  log reduction in the number of cfu/ml: 4.5 log
  survival: 1.0 × 10^1 cfu/ml and 1.2 × 10^1 cfu/ml and 1.1 × 10^1 cfu/ml
[1]; [15]
  Average Log: 2.0 Log
  log reduction in the number of cfu/ml: 4.5 log
[1]; [16]
  Average Log: 3.78 Log
  survival: 6.1 × 10^3 cfu/ml and 6.0 × 10^3 cfu/ml
[1]; 14% MSM, 30 μg/ml oxacillin, 48 hours
  Average Log: 2.5 Log
[1]; 14% MSM, 30 μg/ml oxacillin, 72 hours
  Average Log: 2.2 Log
[1]; [17]
  Average Log: 2.03 Log
  log reduction in the number of cfu/ml: 3.5 log
  survival: 1.8 × 10^2 cfu/ml and 1.7 × 10^2 cfu/ml
[1]; 14% MSM, 60 μg/ml oxacillin, 48 hours
  Average Log: 2.2 Log
[1]; 14% MSM, 60 μg/ml oxacillin, 72 hours
  Average Log: 1.5 Log
[1]; [18]
  Average Log: 4.11 Log
  survival: 1.35 × 10^4 cfu/ml and 1.30 × 10^4 cfu/ml and 1.29 × 10^4 cfu/ml
[1]; [19]
  Average Log: 3.7 Log
  survival: 5.0 × 10^3 cfu/ml and 4.5 × 10^3 cfu/ml and 4.6 × 10^3 cfu/ml
[1]; 15% MSM, 12 μg/ml oxacillin, 72 hours
  Average Log: 2.3 Log
[1]; [20]
  Average Log: 3.94 Log
  survival: 8.7 × 10^3 cfu/ml and 8.9 × 10^3 cfu/ml and 8.8 × 10^3 cfu/ml
[1]; 15% MSM, 30 μg/ml oxacillin, 48 hours
  Average Log: 2.8 Log
[1]; 15% MSM, 30 μg/ml oxacillin, 72 hours
  Average Log: 2.4 Log
[1]; [21]
  Average Log: 3.81 Log
  survival: 6.6 × 10^3 cfu/ml and 6.2 × 10^3 cfu/ml and 6.4 × 10^3 cfu/ml
[1]; 15% MSM, 60 μg/ml oxacillin, 48 hours
  Average Log: 2.1 Log
[1]; [22]
  Average Log: 3.88 Log
  survival: 7.6 × 10^3 cfu/ml and 7.4 × 10^3 cfu/ml
[1]; [23]
  Average Log: 3.7 Log
  survival: 4.2 × 10^3 cfu/ml and 5.0 × 10^3 cfu/ml and 4.3 × 10^3 cfu/ml
[1]; 16% MSM, 12 μg/ml oxacillin, 72 hours
  Average Log: 2.1 Log
[1]; [24]
  Average Log: 3.91 Log
  survival: 8.3 × 10^3 cfu/ml and 8.0 × 10^3 cfu/ml
[1]; 16% MSM, 30 μg/ml oxacillin, 48 hours
  Average Log: 2.6 Log
[1]; 16% MSM, 30 μg/ml oxacillin, 72 hours
  Average Log: 1.9 Log
[1]; [25]
  Average Log: 3.83 Log
  survival: 6.9 × 10^3 cfu/ml
[1]; 16% MSM, 60 μg/ml oxacillin, 48 hours
  Average Log: 1.9 Log
[1]; 16% MSM, 60 μg/ml oxacillin, 72 hours
  Average Log: 1.8 Log
[2]; 5% MSM with antibiotic (12, 30 or 60 μg/ml oxacillin or methicillin)
  average log reduction in cfu/ml: 2.2 log
[2]; 16% MSM with antibiotic (barring methicillin 60 μg/ml outlier)
  average log reduction in cfu/ml: 3.3 log
